The values below come from article PMC12446422, “Breastfeeding on ART and a closer look at drug transfer to HIV-exposed uninfected infants” (Scientific Reports, 2025).

Data set [1] can be described thus: ART drug monitoring in serum of breastfed HEU infants (HPLC-UV). In kind it is in vivo, human. The conditions noted are these: for Infant serum level, in words: breastfed infants, against detection limit or adult target range; for concentration at 6 months (infant age) / concentration at 1 month (infant age) / concentration at 4 months (infant age) / concentration at 14 days (infant age): human; for concentration at 6 months (infant age): 6 months of age, breastfeeding exclusive, partial or stopped. The method, then: (§1) HIV-exposed infants were followed at the Pediatric Infectious Diseases Outpatient Clinic at the Department of General Pediatrics according to the current German and European guidelines for HIV-exposed or infected children[6],[11]. MLWH were followed at the department of Infection Medicine, Medical Service Centre Clotten, Freiburg. […] Two mothers (infants 2 and 4) were treated with dolutegravir 50 mg (DTG), abacavir 600 mg (ABC), and lamivudine 300 mg (3TC) once daily. The […] of infant 3 received tenofovir alafenamide/emtricitabine 25/200 mg (TAF/FTC) once daily in combination with nevirapine 200 mg (NVP) twice daily.
(§2) For all HIV-exposed children visits, clinical examinations and blood sampling took place at the age of one, four and 18 to 24 months. […] Routine blood tests included blood cell counts with differentials, transaminases, bilirubin at the first presentation, HIV-PCR and at 18–24 months or after cessation of breastfeeding HIV serology was performed. Primary outcome was infant serum drug exposure; breast-milk concentrations served as supportive secondary data. Serum samples of mothers and infants were drawn during visits to our clinic. Neither the timing of maternal drug intake and breastfeeding, nor the timing of the blood samples, was standardized. Therefore, no pharmacokinetic calculations could be performed. When available, additional serum samples of infants or mothers and a breast milk sample were sent to the Drug monitoring laboratory, Division of Infectious Diseases, Department of Internal Medicine II, University of Würzburg Medical Center, Germany. […] To assess the infant’s ART drug exposure upon breastfeeding, we calculated the relative infant dose (RID). The RID is a commonly used tool for assessing drug exposure and is calculated by dividing the infant’s ART level by the mother’s ART level, expressed as a decimal or percentage[13],[14]. All information for this study was derived from routine clinical exams and was, when available, retrospectively extracted from the patients’ medical records. […] For analysis, the HEU children were divided in 2 groups: HEU breastfed infants (n = 8) and HEU formula-fed infants (n = 62). […] All research was performed in accordance with relevant guidelines and regulations. Data collection and analysis were carried out in Microsoft Excel and R.

The nature of data set [2]: ART drug monitoring in breast milk (HPLC-UV). It counts as in vivo, human. The conditions noted are these: oral, read-out: ART level in breast milk (BM); for concentration at 6 months (infant age): human one. The method, then: as §1, §2
Data set [3] can be described thus: ART drug monitoring in maternal serum (HPLC-UV). In kind it is in vivo, human. Conditions: for Maternal serum level, in words: against adult target range. On the procedure: as §1, §2
For data set [4] the following is noted: statement in discussion; cited from earlier work.
For another data set, the system named is HEU breastfed infants. The data set can be described thus: Absolute neutrophil count of ART-exposed HEU breastfed infants. It counts as in vivo, human. The method, then: as §2
ART serum levels above a 10% RID of the adult target range and neutropenia <1,0 (1000/µl) are indicated in bold.

Data set [5] in a line: Relative infant dose (RID): infant ART level divided by mother's ART level. In kind it is in vivo, human. Conditions: for < 10% RID: target RID expressed as infant serum level. The method, then:
as §2
The RID is used for clinical risk assessment, with a target RID of below 10% indicating a low risk of adverse drug reactions in infants[16],[17].

The conditions of data set [6]: target range for drug trough levels in adults; cited from earlier work.
The conditions of data set [7]: statement in discussion; cited from earlier work. The source holds these as a separate data set.
The mark [8] stands for this setting: serum, other: breastfeeding (maternal ART), read-out: ART level in infant serum (IS).
Setting [9] is: 14 days, breastfed infant exposed to maternal ART, ZDV prophylaxis given.
The mark [10] stands for this setting: all occasions, infant serum below detection, infant 4 (DTG), 8 (RAL), 5 (DRV/r), 7 (RPV).
Where [11] appears, read: child, infant 1 (RPV), infant 3 (nevirapine), infant 2 (DTG).
Where [12] appears, read: serum, other: breastfeeding (maternal ART), breastfed infant (entry one), read-out: ART level in infant serum (IS).

SMILES strings stand for the structures. Several values for one entry are separate records, joined by “and”; a condition that tells them apart may be missing. Equal entries are not always repeated. Entries after “also recorded” stand apart in the source; their conditions may differ.

`Cc1cc(/C=C/C#N)cc(C)c1Nc1ccnc(Nc2ccc(C#N)cc2)n1` [RPV, rilpivirine]: the “Infant serum level, in words” value in data set [1] is given as “below the detectable range; also recorded: below the range of detection; also recorded: above the adult target range”. The concentration at 6 months (infant age) in data set [1] (setting [8]) and in data set [2] was less than 50 ng/mL each time. Besides, the concentration at 1 month (infant age) in data set [2] (human three) is less than 50 ng/mL. For the same compound, in data set [3], the “Maternal serum level, in words” value was “above the adult target range; also recorded: well above the adult therapeutic range”. In data set [4], the Lipophilicity entry is “highly lipophilic”. In addition, the “Neutro_abs (absolute neutrophil count)” value is 1,80 1000/ µl and 1,15 1000/ µl and 1,05 1000/ µl in the data set with HEU breastfed infants (4 months); 1,77 1000/ µl and 1,65 1000/ µl and 1,39 1000/ µl in the data set with HEU breastfed infants (18 months); 2,25 1000/ µl and 2,27 1000/ µl in the data set on HEU breastfed infants (setting [9]). The entries for the “RID (relative infant dose)” value in data set [5] (setting [10]) and in data set [5] (setting [11]) were less than 10% and 633%, respectively. In addition, in data set [5], the “< 10% RID” value is less than 20 ng/mL. Further, the Adult trough level in data set [6] was 50 to 200 ng/mL.
`C[C@@H]1CCO[C@H]2Cn3cc(C(=O)NCc4ccc(F)cc4F)c(=O)c(O)c3C(=O)N12` [DTG, dolutegravir]: the concentration at 1 month (infant age) in data set [1] (setting [12]) and in data set [2] (human three) was less than 50 ng/mL in each case. Besides, the concentration at 6 months (infant age) in data set [2] was 680 ng/mL. Besides, the concentration at 4 months (infant age) in data set [2] (human two) is 648 ng/mL; in data set [3] (human two, serum, oral, read-out: ART level in maternal serum (MS)), 2410 ng/mL. Moreover, in data set [3], the “Maternal serum level, in words” value was “within the therapeutic range”. The Lipophilicity result in data set [4] is given as “moderately lipophilic”. Moreover, the “Neutro_abs (absolute neutrophil count)” value in the data set on HEU breastfed infants (18 months) is 3,25 1000/ µl; with HEU breastfed infants (setting [9]), 3,53 1000/ µl. The “RID (relative infant dose)” value is given as less than 10% in data set [5] (setting [10]) and 240% in data set [5] (setting [11]). Besides, the “< 10% RID” value in data set [5] is less than 400 ng/mL. Further, the Adult trough level in data set [6] was 250 to 4000 ng/mL.
With `Cc1nnc(C(=O)NC(C)(C)c2nc(C(=O)NCc3ccc(F)cc3)c(O)c(=O)n2C)o1` [RAL, raltegravir], the “Infant serum level, in words” value in data set [1] is on record as “below the detectable range”. For the same compound, the concentration at 1 month (infant age) in data set [1] (in vivo) was less than 75 ng/mL; in data set [2] (female, human, 1 month of age), 293 ng/mL; in data set [3] (female, human, in vivo) it was 872 ng/mL. Also, the concentration at 4 months (infant age) was less than 75 ng/mL in data set [1] (in vivo); 168 ng/mL in data set [2] (female, human, 4 months of age); 184 ng/mL in data set [3] (female, human, in vivo). Further, the concentration at 14 days (infant age) was less than 75 ng/mL in data set [1] (in vivo); 1760 ng/mL in data set [2] (female, human, 14 days of age); less than 75 ng/mL in data set [3] (female, human, serum, oral, 14 days of age, timing of intake and sampling not standardized, read-out: ART level in maternal serum (MS)). Also, the Lipophilicity result in data set [4] is given as “moderately lipophilic”. Moreover, the “Neutro_abs (absolute neutrophil count)” value was 1,32 1000/ µl with HEU breastfed infants (1 month), 3,35 1000/ µl with HEU breastfed infants (18 months) and 2,74 1000/ µl with HEU breastfed infants (setting [9]). The “< 10% RID” value in data set [5] is less than 55 ng/mL.
On to `CC(C)CN(C[C@@H](O)[C@H](Cc1ccccc1)NC(=O)O[C@H]1CO[C@H]2OCC[C@H]21)S(=O)(=O)c1ccc(N)cc1` [DRV, darunavir], for which the “Infant serum level, in words” value in data set [1] is “below detectable levels”. In addition, in data set [1] (in vivo, breastfed infant (entry one), read-out: ART level in infant serum (IS)), the concentration at 14 days (infant age) is less than 50 ng/mL. Besides, the concentration at 4 months (infant age) in data set [1] (in vivo, breastfed infant (entry three), read-out: ART level in infant serum (IS)) is less than 50 ng/mL; in data set [2] (human two) it was less than 250 ng/mL; in data set [3] (female, human, in vivo, 4 months of age, read-out: ART level in maternal serum (MS)) it was 4130 ng/mL. The concentration at 6 months (infant age) in data set [2] is less than 250 ng/mL; in data set [3] (female, human, in vivo, 6 months of age, read-out: ART level in maternal serum (MS)), 3360 ng/mL. Further, the concentration at 1 month (infant age) is less than 250 ng/mL in data set [2] (human three) and 3800 ng/mL in data set [3] (female, human, in vivo, 1 month of age, read-out: ART level in maternal serum (MS)). Further, the Lipophilicity entry in data set [4] was “lipophilic”. Further, the “Neutro_abs (absolute neutrophil count)” value with HEU breastfed infants (1 month) is reported as 0,69 1000/ µl; with HEU breastfed infants (4 months), 0,64 1000/ µl; with HEU breastfed infants (6 months), 1,15 1000/ µl; in the data set with HEU breastfed infants (setting [9]), 1,16 1000/ µl. In addition, the “< 10% RID” value in data set [5] was less than 380 ng/mL. The Plasma protein binding result in data set [7] is “high”.
For `Cc1ccnc2c1NC(=O)c1cccnc1N2C1CC1` [NVP, nevirapine], the concentration at 6 months (infant age) in data set [1] (setting [8]) was found to be 649 ng/mL; in data set [3] (human one, serum, oral, read-out: ART level in maternal serum (MS)), 3930 ng/mL. Besides, the concentration at 1 month (infant age) in data set [1] (setting [12]) is 1210 ng/mL. Moreover, the concentration at 4 months (infant age) in data set [1] (serum, other: breastfeeding (maternal ART), breastfed infant (entry two), read-out: ART level in infant serum (IS)) came out at 1150 ng/mL. Moreover, in data set [4], the Lipophilicity result is listed as “highly lipophilic”. The “Neutro_abs (absolute neutrophil count)” value with HEU breastfed infants (1 month) is listed as 1,53 1000/ µl; in the data set on HEU breastfed infants (4 months), 1,20 1000/ µl; in the data set with HEU breastfed infants (6 months), 3,33 1000/ µl; in the data set on HEU breastfed infants (18 months) it was 1,32 1000/ µl. Moreover, in data set [5] (setting [11]), the “RID (relative infant dose)” value amounted to 171%. The “< 10% RID” value in data set [5] is less than 670 ng/mL. In data set [6], the Adult trough level was 1600 to 6700 ng/mL.
